Test results published in ChEMBL document CHEMBL1141386, “Metabolites from the Lichen Ochrolechia parella growing under two different heliotropic conditions” (J Nat Prod, 2007).

system: B16; assay: Cytotoxicity against murine B16 cells by MTT assay; format: cell-based; details: Mus musculus

Point of comparison: `CC(C)[C@@H](C)/C=C/[C@@H](C)[C@H]1CC[C@@H]2[C@]1(C)CC[C@H]1[C@]23C=C[C@]2(C[C@@H](O)CC[C@]12C)OO3` [ERGOSTEROL PEROXIDE], IC50 77.9 µM. Against it:
- CCCCCC(=O)Cc1cc(O)cc2c1C(=O)Oc1cc(O)c(C(=O)O)c(CC(=O)CCCCC)c1O2 — 7.6-fold lower, 10.3 µM
- COc1cccc2c1C(=O)c1c(O)c3c(c(O)c1C2=O)C[C@@](O)(C(=O)CO)C[C@@H]3O[C@H]1C[C@H](N)[C@H](O)[C@H](C)O1 [DOXORUBICIN] — 780-fold lower, 0.1 µM
- Cc1cc(O)cc2c1C(=O)Oc1cc3c(c(O)c1O2)C(=O)OC3 [VARIOLARIC ACID] — 2-fold lower, 38.7 µM
